According to patent US10160986B2, “Chemoenzymatic synthesis of heparin and heparan sulfate analogs” (The Regents of the University of California, priority 2011, dated 2018):
Read-outs that look alike come from different tables or passages of the source.

Tests used:
PmHS2 = experiment: Small-scale PmHS2 donor substrate test by TLC; type: biochemical, Pasteurella multocida; settings: GlcAβ2AAMe 10 mM, donor 15 mM, MgCl2 10 mM, PmHS2 0.5 mg/mL, pH 7.5, 37° C., 12 hr
Experimental: Prior to applying the one-pot three-enzyme system shown in FIG. 16 to the preparative-scale synthesis of the disaccharides, UDP-GlcNAc and derivatives F17-1-F17-12 were tested as donor substrates for PmHS2 in small-scale reaction containing Tris-HCl buffer (100 mM, pH 7.5), GlcAβ2AAMe (10 mM), UDP-GlcNAc or a derivative (15 mM), MgCl2 (10 mM), and PmHS2 (0.5 mg/mL). The reactions were carried out at 37° C. for 12 hr and analyzed by thin layer chromatography (TLC).

[1] = system: T1, MBP-KfiA-His6 (Escherichia coli); experiment: GlcNAcT donor substrate specificity of MBP-KfiA-His6 (Example 12); type: biochemical, E. coli; settings: acceptor GlcAβ2AA 1 mM, UDP-sugar 1 mM, MnCl2 10 mM, KfiA 2.8 μg μl^−1, 24 h, 37° C.
T1 construct: made in house; host or cells: E. coli BL21(DE3) co-expressing chaperone plasmid pGro7
Experimental: (§1) PmHS2, KfiA, and related fusion proteins were expressed, purified, and characterized as described in Example 1. Reactions with UDP-sugars were carried out in duplicate at 37° C. in MES (100 mM, pH 6.5) containing UDP-GlcNAc or one of its derivatives (1 mM), GlcAβ2AA (1 mM), MnCl2 (10 mM) and KfiA (2.8 μg μl^−1) or PmHS2 (1.1 μg μl^−1) for 24 h. The reaction mixtures were stopped by adding ice-cold 10% (v/v) acetonitrile to make 100-fold dilutions and the mixtures were analyzed by HPLC as described for the pH profile.
(§2) Substrate specificity of the GlcNAcT activities of MBP-KfiA-his6 and his6-PmHS2. […] The reactions were easily analyzed by high performance liquid chromatography (HPLC) equipped with a fluorescence detector using an excitation wavelength of 315 nm and an emission wavelength of 400 nm to determine the ratio of the fluorescent disaccharide product formed and the fluorescent GlcAβ2AA acceptor.

His6-PmHS2 = experiment: GlcNAcT donor substrate specificity of His6-PmHS2 (Example 12); type: biochemical, Pasteurella multocida; settings: acceptor GlcAβ2AA 1 mM, UDP-sugar 1 mM, MnCl2 10 mM, PmHS2 1.1 μg μl^−1, 24 h, 37° C.
Experimental: as §1, §2

NahK_ATCC15697 = NahK_ATCC15697 (Bifidobacterium longum, UniProt B7GN78); experiment: Substrate specificity CE assay, NahK_ATCC15697; type: biochemical, Bifidobacterium infantis; settings: substrate 1 mM
Experimental: (§3) Substrates specificity assays. GlcNAc, GalNAc, and their derivatives (1 mM) were used as substrates in the presence of ATP (1 mM) and MgCl2 (5 mM) in a Tris-HCl buffer (pH 8.0, 200 mM) to analyze the substrate specificity of NahKs. Two concentrations (0.75 μM or 15 μM) of each NahK were used and the reactions were allowed to proceed for 10 min (for 0.75 μM NahK) or 30 min (for 15 μM NahK) at 37° C. […] All other conditions were the same as for GlcNAc, GalNAc, and their derivatives.
(§4) Capillary electrophoresis (CE) assays. Based on the detection of ADP and ATP in the reaction mixture by a UV detector, a capillary electrophoresis-based method was developed to directly measure the formation of ADP and N-acetylhexosamine-1-phosphate from ATP and N-acetylhexosamine for characterizing the activities of NahKs.

NahK_ATCC55813 = NahK_ATCC55813 (Bifidobacterium longum subsp. longum, UniProt E8MF12, D7V/R348H); type: biochemical; set-up: made in house; host or cells: E. coli BL21(DE3); settings: substrate 1 mM
Experimental: as §3, §4

NahK = experiment: Kinase reaction monitored by CE (ATP to ADP), NahK; type: biochemical, Bifidobacterium infantis; settings: monosaccharide 15 mM, ATP 18 mM, 37° C.
Experimental: Capillary electrophoresis (CE) and thin-layer chromatograph (TLC) assays for kinase reactions. Kinase reactions were carried out at 37° C. in a total volume of 30 μL in Tris-HCl buffer (100 mM, pH 8.0) containing monosaccharide (15 mM), ATP (18 mM, 1.2 eq.), MgCl2 (10 mM), and a kinase (6 μg). These conditions were similar to those used for preparative-scale synthesis. After 1 hr, 4 hr, and 24 hr, an aliquot of 8 μL was withdrawn from each reaction mixture, boiled in a water bath for 5 min and stored at −20° C. until being analyzed by capillary electrophoresis (CE) and TLC. For TLC analysis, 0.5 μL of each sample was directly spotted on TLC plates, developed using suitable developing solvents, and stained with anisaldehyde sugar stain. For CE analysis, 1.5 μL of each sample was diluted into 30 μL and subjected to CE analysis as described above for pH profile studies.
General methods for compound purification and characterization. Chemicals were purchased and used without further purification. ^1H NMR and ^13C NMR spectra were recorded on a Varian Mercury 600 NMR spectrometer. High resolution electrospray ionization (ESI) mass spectra were obtained in negative mode using Thermo Electron LTQ-Orbitrap mass spectrometer. Silica gel 60 Å (Sorbent Technologies) was used for flash column chromatography. Thin-layer chromatography (TLC) was performed on silica gel plates 60 GF254 (Sorbent Technologies) using anisaldehyde sugar stain for detection. Gel filtration chromatography was performed with a column (100 cm×2.5 cm) packed with BioGel P-2 Fine resins (Bio-Rad). GlcN3 (T6-9) (Lau K, Thon, V, Yu H, Ding L, Chen Y, Muthana M M, Wong D, Huang R, and Chen X. Chem. Commun. 2010, 46, 6066-6068), ManF (T6-11) (Burkart M D, Zhang Z, Hung S-C, and Wong C-H. J. Am. Chem. Soc. 1997, 119, 11743-11746; Cao H, Li Y, Lau K, Muthana S, Yu H, Cheng J, Chokhawala H A, Sugiarto G, Zhang L, and Chen X. Org. Biomol. Chem. 2009, 7, 5137-5145), GalN3 (T6-4) and ManN3 (T6-14) (Yu H, Yu H, Karpel R, cand Chen X. Bioorg. Med. Chem. 2004, 12, 6427-6435) were previously synthesized using reported methods. NahK_ATCC15697, EcGalK, SpGalK, and PmPpA were overexpressed as described previously.

[2] = 0.75 μM enzyme, 10 min at 37° C., ATP 1 mM
[3] = 15 μM enzyme, 30 min at 37° C., ATP 1 mM (Table 2)

| Compound | donor substrate for MBP-KfiA-His6 [1] | donor substrate for the α1-4GlcNAcT activity of His6-PmHS2 (His6-PmHS2) | further results |
| --- | --- | --- | --- |
| CC(=O)NC1C(OP(=O)(O)OP(=O)(O)OCC2OC(n3ccc(=O)[nH]c3=O)C(O)C2O)OC(CN)C(O)C1O [Compound F17-10, Uridine 5′-diphospho-2-acetamido-6-amino-2,6-dideoxy-α-D-glucopyranoside] | not for MBPKfiA-His6 | tolerable donor substrates for His6-PmHS2 | donor substrate for PmHS2 (PmHS2): did not serve as donor substrates |
| CC(=O)NC1C(OP(=O)(O)OP(=O)(O)OCC2OC(n3ccc(=O)[nH]c3=O)C(O)C2O)OC(CNC(=O)Cc2ccccc2)C(O)C1O [Compound 33-14, Uridine 5′-diphospho-2-acetamido-6-phenylacetamido-2,6-dideoxy-α-D-glucopyranoside] | not suitable donor substrates | not suitable donor substrates |  |
| O=c1ccn(C2OC(COP(=O)(O)OP(=O)(O)OC3OC(CO)C(O)C(O)C3F)C(O)C2O)c(=O)[nH]1 [Compound 33-23, Uridine 5′-diphospho-2-fluoro-2-deoxy-α-D-mannopyranoside] | not tolerable substrate | not tolerable substrate |  |
| O=C(Cc1ccccc1)NC1C(OP(=O)(O)OP(=O)(O)OCC2OC(n3ccc(=O)[nH]c3=O)C(O)C2O)OC(CO)C(O)C1O [Compound 33-5, Uridine 5′-diphospho-2-phenylacetamido-2-deoxy-α-D-glucopyranoside] | not for MBPKfiA-His6 | tolerable donor substrates for His6-PmHS2 |  |
| [N-]=[N+]=N[C@@H]1[C@@H](OP(=O)(O)OP(=O)(O)OC[C@H]2O[C@@H](n3ccc(=O)[nH]c3=O)[C@H](O)[C@@H]2O)O[C@H](CO)[C@@H](O)[C@@H]1O [Compound 33-21, Uridine 5′-diphospho-2-azido-2-deoxy-α-D-mannopyranoside] | not tolerable substrate | not tolerable substrate |  |
| CC(=O)N[C@@H]1[C@@H](OP(=O)(O)OP(=O)(O)OC[C@H]2O[C@@H](n3ccc(=O)[nH]c3=O)[C@H](O)[C@@H]2O)O[C@H](CO)[C@@H](O)[C@@H]1O [Compound 33-20, Uridine 5′-diphospho-2-acetamido-2-deoxy-α-D-mannopyranoside] | not tolerable substrate | not tolerable substrate |  |
| CC(=O)N[C@H]1[C@@H](OP(=O)(O)OP(=O)(O)OC[C@H]2O[C@@H](n3ccc(=O)[nH]c3=O)[C@H](O)[C@@H]2O)O[C@H](COS(=O)(=O)O)[C@@H](O)[C@@H]1O [Compound F17-12, Uridine 5′-diphospho-2-acetamido-2-deoxy-6-O-sulfo-α-D-glucopyranoside] |  | block the activities of both | donor substrate for PmHS2 (PmHS2): did not serve as donor substrates |
| CC(=O)NC1C(OP(=O)(O)OP(=O)(O)OCC2OC(n3ccc(=O)[nH]c3=O)C(O)C2O)OC(CNC(=O)Cc2ccc(-c3ccccc3)cc2)C(O)C1O [Compound 33-15, Uridine 5′-diphospho-2-acetamido-6-(1,1′-biphenyl-4-yl)-acetamido-2,6-dideoxy-α-D-glucopyranoside] | not suitable donor substrates | not suitable donor substrates |  |
| CC(=O)N[C@H]1[C@@H](OP(=O)(O)OP(=O)(O)OC[C@H]2O[C@@H](n3ccc(=O)[nH]c3=O)[C@H](O)[C@@H]2O)O[C@H](CO)[C@H](O)[C@@H]1O [Compound 33-18, uridine 5′-diphospho-2-acetamido-2-deoxy-α-D-glacopyranoside] | not for MBPKfiA-His6 | tolerable donor substrates for His6-PmHS2 |  |
| NC1C(O)OC(CO)[C@@H](O)[C@@H]1O (stereo partly drawn) [2-amino-2-deoxy-glucose] |  |  | Percentage Conversion (NahK_ATCC15697; [2]): 0%; Percentage Conversion (NahK_ATCC15697; [3]): 15.0 ± 0.1%; Percentage Conversion (NahK_ATCC55813; [2]): 0%; Percentage Conversion (NahK_ATCC55813; [3]): 8.4 ± 0.1%; ATP Conversion (NahK; 1 hr): 11.9%; ATP Conversion (NahK; 4 hr): 28.0%; ATP Conversion (NahK; 24 hr): 67.1% |
| O=C(Cc1ccc(-c2ccccc2)cc1)N[C@H]1[C@@H](OP(=O)(O)OP(=O)(O)OC[C@H]2O[C@@H](n3ccc(=O)[nH]c3=O)[C@H](O)[C@@H]2O)O[C@H](CO)[C@@H](O)[C@@H]1O [Compound 33-6, Uridine 5′-diphospho-2-(1,1′-biphenyl-4-yl)acetamido-2-deoxy-α-D-glucopyranoside] | not suitable donor substrates | not suitable donor substrates |  |
| O=c1ccn([C@@H]2O[C@H](COP(=O)(O)OP(=O)(O)O[C@H]3O[C@H](CO)[C@@H](O)[C@H](O)[C@H]3NS(=O)(=O)O)[C@@H](O)[C@H]2O)c(=O)[nH]1 [Compound F17-7, Uridine 5′-diphospho-2-sulfoamino-2-deoxy-α-D-glucopyranoside] |  | block the activities of both | donor substrate for PmHS2 (PmHS2): did not serve as donor substrates |
